# From ChEMBL document CHEMBL1201862, “PubChem BioAssay data set” (2004)
#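 The compound was tested at five concentrations on cells cultured in 96-well plates, with a 48-hour exposure period. GI50 marks 50% less growth.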 Calls of active or inactive are those of the source. No stated cut-off is given here; in the data, active = GI50 up to about 1.1 µM and inactive = higher.
# What was measured:
# Experiment in all cases: NCI-60 cell line screen, 48 h
# [1] = system: IGROV-1
# [2] = system: SNB-19
# [3] = system: T47D
# [4] = system: MDA-N
# [5] = system: CAKI-1
# [6] = system: SF-268
# [7] = system: EKVX
# [8] = system: DU-145
# [9] = system: UACC-62
# [10] = system: SF-295
# [11] = system: NCI/ADR-RES
# [12] = system: RPMI-8226
# [13] = system: HOP-92
# [14] = system: COLO 205
# [15] = system: HCC 2998
# [16] = system: OVCAR-4
# [17] = system: HCT-15
# [18] = system: UO-31
# [19] = system: SR
# [20] = system: A498
# [21] = system: SK-MEL-2
# [22] = system: MDA-MB-231
# [23] = system: K562
# [24] = system: Malme-3M
# [25] = system: TK-10
# [26] = system: CCRF-CEM
# [27] = system: OVCAR-3
# [28] = system: UACC-257
# [29] = system: MOLT-4
# [30] = system: SK-MEL-28
# [31] = system: ACHN
# [32] = system: OVCAR-8
# [33] = system: M14
# [34] = system: NCI-H460
# [35] = system: 786-0
# [36] = system: HOP-62
# [37] = system: LOX IMVI
# [38] = system: MCF7
# [39] = system: OVCAR-5
# [40] = system: SN12C
# [41] = system: U-251
# [42] = system: HCT-116
# [43] = system: SW-620
# [44] = system: PC-3
# [45] = system: SK-OV-3
# [46] = system: MDA-MB-435
# [47] = system: HL-60
# [48] = system: SNB-75
# [49] = system: SF-539
# [50] = system: HT-29
# [51] = system: SK-MEL-5
# [52] = system: NCI-H23
# [53] = system: Hs-578T
# [54] = system: A549
# [55] = system: NCI-H522
# [56] = system: NCI-H226
# [57] = system: RXF 393
# [58] = system: BT-549
# [59] = system: KM12
smiles,measurement,setting,value
CS/C(=N/S(=O)(=O)c1ccc(Cl)cc1)NCCCN/C(=N\S(=O)(=O)c1ccc(Cl)cc1)SC,GI50,[1],30.4 µM (inactive)
same,GI50,[2],80.7 µM (inactive)
same,GI50,[3],7.35 µM (inactive)
same,GI50,[4],12.1 µM (inactive)
same,GI50,[5],23.3 µM (inactive)
same,GI50,[6],9.48 µM (inactive)
same,GI50,[7],12.7 µM (inactive)
same,GI50,[8],23.6 µM (inactive)
same,GI50,[9],16.9 µM (inactive)
same,GI50,[10],12.7 µM (inactive)
same,GI50,[11],12.9 µM (inactive)
same,GI50,[12],13.7 µM (inactive)
same,GI50,[13],1.81 µM (inactive)
same,GI50,[14],21.5 µM (inactive)
same,GI50,[15],22.5 µM (inactive)
same,GI50,[16],3.56 µM (inactive)
same,GI50,[17],7.76 µM
same,GI50,[18],13 µM (inactive)
same,GI50,[19],4.34 µM (inactive)
same,GI50,[20],8.43 µM (inactive)
same,GI50,[21],14.2 µM (inactive)
same,GI50,[22],6.21 µM (inactive)
same,GI50,[23],6.11 µM (inactive)
same,GI50,[24],15.7 µM (inactive)
same,GI50,[25],14.5 µM (inactive)
same,GI50,[26],16.7 µM (inactive)
same,GI50,[27],6.93 µM (inactive)
same,GI50,[28],6.15 µM (inactive)
same,GI50,[29],4.8 µM (inactive)
same,GI50,[30],25.8 µM (inactive)
same,GI50,[31],12.1 µM (inactive)
same,GI50,[32],19.8 µM (inactive)
same,GI50,[33],15.4 µM (inactive)
same,GI50,[34],10.2 µM (inactive)
same,GI50,[35],25.2 µM (inactive)
same,GI50,[36],24.8 µM (inactive)
same,GI50,[37],14 µM (inactive)
same,GI50,[38],8.28 µM (inactive)
same,GI50,[39],25.2 µM (inactive)
same,GI50,[40],5.08 µM (inactive)
same,GI50,[41],29.4 µM (inactive)
same,GI50,[42],21.6 µM (inactive)
same,GI50,[43],45.6 µM (inactive)
same,GI50,[44],4.62 µM (inactive)
same,GI50,[45],31.1 µM (inactive)
same,GI50,[46],9.42 µM (inactive)
same,GI50,[47],8.38 µM (inactive)
same,GI50,[48],15.8 µM (inactive)
same,GI50,[49],64 µM (inactive)
same,GI50,[50],22.8 µM (inactive)
[C-]#[N+]C1(C(=O)OCC)CC1,GI50,[51],> 100 µM (inactive)
same,GI50,[1],> 100 µM (inactive)
same,GI50,[2],> 100 µM (inactive)
same,GI50,[3],> 100 µM (inactive)
same,GI50,[4],> 100 µM (inactive)
same,GI50,[6],> 100 µM (inactive)
same,GI50,[7],> 100 µM (inactive)
same,GI50,[8],> 100 µM (inactive)
same,GI50,[9],> 100 µM (inactive)
same,GI50,[10],> 100 µM (inactive)
same,GI50,[11],> 100 µM (inactive)
same,GI50,[12],> 100 µM (inactive)
same,GI50,[13],> 100 µM (inactive)
same,GI50,[15],> 100 µM (inactive)
same,GI50,[16],> 100 µM (inactive)
same,GI50,[17],> 100 µM
same,GI50,[19],> 100 µM (inactive)
same,GI50,[20],> 100 µM (inactive)
same,GI50,[23],> 100 µM (inactive)
same,GI50,[52],> 100 µM (inactive)
same,GI50,[24],> 100 µM (inactive)
same,GI50,[25],> 100 µM (inactive)
same,GI50,[53],> 100 µM (inactive)
same,GI50,[54],> 100 µM (inactive)
same,GI50,[26],> 100 µM (inactive)
same,GI50,[55],> 100 µM (inactive)
same,GI50,[27],> 100 µM (inactive)
same,GI50,[28],> 100 µM (inactive)
same,GI50,[29],> 100 µM (inactive)
same,GI50,[30],> 100 µM (inactive)
same,GI50,[56],> 100 µM (inactive)
same,GI50,[31],> 100 µM (inactive)
same,GI50,[32],> 100 µM (inactive)
same,GI50,[33],> 100 µM (inactive)
same,GI50,[34],> 100 µM (inactive)
same,GI50,[35],> 100 µM (inactive)
same,GI50,[36],> 100 µM (inactive)
same,GI50,[37],> 100 µM (inactive)
same,GI50,[38],> 100 µM (inactive)
same,GI50,[39],> 100 µM (inactive)
same,GI50,[40],> 100 µM (inactive)
same,GI50,[41],> 100 µM (inactive)
same,GI50,[57],> 100 µM (inactive)
same,GI50,[42],> 100 µM (inactive)
same,GI50,[43],> 100 µM (inactive)
same,GI50,[44],> 100 µM (inactive)
same,GI50,[46],> 100 µM (inactive)
same,GI50,[47],> 100 µM (inactive)
same,GI50,[48],> 100 µM (inactive)
same,GI50,[49],> 100 µM (inactive)
same,GI50,[50],> 100 µM (inactive)
O=C1NC(=O)C(COCc2ccccc2)C2=C1SCCC2 (centres undefined),GI50,[51],> 100 µM (inactive)
same,GI50,[1],> 100 µM (inactive)
same,GI50,[2],> 100 µM (inactive)
same,GI50,[4],> 100 µM (inactive)
same,GI50,[5],> 100 µM (inactive)
same,GI50,[6],> 100 µM (inactive)
same,GI50,[7],> 100 µM (inactive)
same,GI50,[8],> 100 µM (inactive)
same,GI50,[10],> 100 µM (inactive)
same,GI50,[11],> 100 µM (inactive)
same,GI50,[12],> 100 µM (inactive)
same,GI50,[13],> 100 µM (inactive)
same,GI50,[14],> 100 µM (inactive)
same,GI50,[15],> 100 µM (inactive)
same,GI50,[16],> 100 µM (inactive)
same,GI50,[58],> 100 µM (inactive)
same,GI50,[17],> 100 µM
same,GI50,[18],> 100 µM (inactive)
same,GI50,[19],> 100 µM (inactive)
same,GI50,[20],> 100 µM (inactive)
same,GI50,[21],> 100 µM (inactive)
same,GI50,[22],> 100 µM (inactive)
same,GI50,[23],> 100 µM (inactive)
same,GI50,[52],> 100 µM (inactive)
same,GI50,[24],> 100 µM (inactive)
same,GI50,[53],> 100 µM (inactive)
same,GI50,[54],> 100 µM (inactive)
same,GI50,[26],> 100 µM (inactive)
same,GI50,[55],> 100 µM (inactive)
same,GI50,[27],> 100 µM (inactive)
same,GI50,[28],> 100 µM (inactive)
same,GI50,[29],> 100 µM (inactive)
same,GI50,[30],> 100 µM (inactive)
same,GI50,[56],> 100 µM (inactive)
same,GI50,[31],> 100 µM (inactive)
same,GI50,[32],> 100 µM (inactive)
same,GI50,[33],> 100 µM (inactive)
same,GI50,[34],> 100 µM (inactive)
same,GI50,[35],> 100 µM (inactive)
same,GI50,[36],> 100 µM (inactive)
same,GI50,[37],> 100 µM (inactive)
same,GI50,[38],> 100 µM (inactive)
same,GI50,[41],> 100 µM (inactive)
same,GI50,[57],> 100 µM (inactive)
same,GI50,[42],> 100 µM (inactive)
same,GI50,[43],> 100 µM (inactive)
same,GI50,[44],> 100 µM (inactive)
same,GI50,[59],> 100 µM (inactive)
same,GI50,[46],> 100 µM (inactive)
same,GI50,[47],> 100 µM (inactive)
same,GI50,[48],> 100 µM (inactive)
same,GI50,[49],> 100 µM (inactive)
same,GI50,[50],> 100 µM (inactive)
